Experimental data as given in ChEMBL document CHEMBL1201862, “PubChem BioAssay data set” (2004).
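Method: 48-hour compound exposure of cells in 96-well plates, five concentrations, linear interpolation of endpoints. At the GI50, growth is halved.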 The source made the active and inactive calls. Rule as the data show it: active = GI50 up to about 1.1 µM and inactive = higher.

Legend:
Test in all cases: inhibition of tumour cell growth, NCI panel, 48 h
[1] = tested on: A549
[2] = tested on: COLO 205
[3] = tested on: EKVX
[4] = tested on: HCC 2998
[5] = tested on: HL-60
[6] = tested on: HT-29
[7] = tested on: KM12
[8] = tested on: LOX IMVI
[9] = tested on: Malme-3M
[10] = tested on: NCI-H460
[11] = tested on: OVCAR-3
[12] = tested on: OVCAR-4
[13] = tested on: RPMI-8226
[14] = tested on: SF-295
[15] = tested on: SK-MEL-2
[16] = tested on: SNB-19
[17] = tested on: SNB-75
[18] = tested on: SR
[19] = tested on: UO-31
[20] = tested on: OVCAR-5

| Structure (SMILES) | GI50 [1] | GI50 [2] | GI50 [3] | GI50 [4] | GI50 [5] | GI50 [6] | GI50 [7] | GI50 [8] | GI50 [9] | GI50 [10] | GI50 [11] | GI50 [12] | GI50 [13] | GI50 [14] | GI50 [15] | GI50 [16] | GI50 [17] | GI50 [18] | GI50 [19] | GI50 [20] |
| --- | --- | --- | --- | --- | --- | --- | --- | --- | --- | --- | --- | --- | --- | --- | --- | --- | --- | --- | --- | --- |
| COc1ccc(NC(=O)CC(=O)N2N=C(C)C(/N=N\c3ccc(S(=O)(=O)c4ccc(/N=N/C5C(=O)N(C(=O)CC(=O)Nc6ccc(OC)cc6)N=C5C)cc4)cc3)C2=O)cc1 (stereo not drawn) | > 100 µM (inactive) | > 100 µM (inactive) | > 100 µM (inactive) | > 100 µM (inactive) | > 100 µM (inactive) | > 100 µM (inactive) | > 100 µM (inactive) | > 100 µM (inactive) | > 100 µM (inactive) | > 100 µM (inactive) | > 100 µM (inactive) | > 100 µM (inactive) | > 100 µM (inactive) | > 100 µM (inactive) | > 100 µM (inactive) | > 100 µM (inactive) | 24.9 µM (inactive) | > 100 µM (inactive) | > 100 µM (inactive) | – |
| O=[N+]([O-])C=C(c1ccc(Cl)cc1)c1ccc(Cl)cc1 | 19.7 µM (inactive) | 3.85 µM (inactive) | 17.5 µM (inactive) | 19 µM (inactive) | 17.1 µM (inactive) | 18.9 µM (inactive) | 14.6 µM (inactive) | 12.7 µM (inactive) | – | 20.3 µM (inactive) | > 10 µM (inactive) | 13.5 µM (inactive) | 11.2 µM (inactive) | 18.5 µM (inactive) | 29.2 µM (inactive) | 18.5 µM (inactive) | 21.7 µM (inactive) | 19.5 µM (inactive) | 14.2 µM (inactive) | 14.5 µM (inactive) |
| CNC(=O)OC(C)CN1c2ccccc2Sc2ccc(Cl)cc21 (stereo not drawn) | > 10 µM (inactive) | > 10 µM (inactive) | > 10 µM (inactive) | > 10 µM (inactive) | > 10 µM (inactive) | > 10 µM (inactive) | – | > 10 µM (inactive) | > 10 µM (inactive) | > 10 µM (inactive) | > 10 µM (inactive) | > 10 µM (inactive) | > 10 µM (inactive) | > 10 µM (inactive) | > 10 µM (inactive) | > 10 µM (inactive) | > 10 µM (inactive) | > 10 µM (inactive) | > 10 µM (inactive) | > 10 µM (inactive) |
| CCC(=C/[C@H](C)C/C=C/C(C)=C/[C@@H](C)C(=O)[C@@H](C)[C@H](O)[C@@H](C)CC)/C=C/[C@H]1CC=CC(=O)O1 [CALLYSTATIN A] | < 0.0012 µM (active) | < 0.0012 µM (active) | < 0.0012 µM (active) | < 0.0012 µM (active) | < 0.0012 µM (active) | < 0.0012 µM (active) | < 0.0012 µM (active) | < 0.0012 µM (active) | < 0.0012 µM (active) | < 0.0012 µM (active) | < 0.0012 µM (active) | < 0.0012 µM (active) | 2.67 µM (inactive) | < 0.0012 µM (active) | < 0.0012 µM (active) | < 0.0012 µM (active) | < 0.0012 µM (active) | < 0.0012 µM (active) | < 0.0012 µM (active) | < 0.0012 µM (active) |
| COc1ccc([C@H]2c3cc4c(cc3OC(O)(CO)[C@H]2C(=O)O)OCO4)c(OC)c1.COc1ccc([C@H]2c3cc4c(cc3OC3(O)COC(=O)[C@@H]23)OCO4)c(OC)c1 (stereo partly drawn) | > 100 µM (inactive) | > 100 µM (inactive) | > 100 µM (inactive) | > 100 µM (inactive) | 45.6 µM (inactive) | > 100 µM (inactive) | > 100 µM (inactive) | 95.5 µM (inactive) | > 100 µM (inactive) | > 100 µM (inactive) | > 100 µM (inactive) | > 100 µM (inactive) | 41.9 µM (inactive) | > 100 µM (inactive) | > 100 µM (inactive) | > 100 µM (inactive) | 43.5 µM (inactive) | 56 µM (inactive) | > 100 µM (inactive) | > 100 µM (inactive) |
| O=C1c2cc3c(cc2CC1Cc1ccc2c(c1)CCC2)CCC3 (stereo not drawn) | 64.4 µM (inactive) | 25 µM (inactive) | > 100 µM (inactive) | 36.7 µM (inactive) | 66.2 µM (inactive) | 40 µM (inactive) | > 100 µM (inactive) | 66.1 µM (inactive) | 79.6 µM (inactive) | 34.4 µM (inactive) | 63.4 µM (inactive) | 82.6 µM (inactive) | 40.5 µM (inactive) | 23.5 µM (inactive) | 48.8 µM (inactive) | 34.3 µM (inactive) | 13.4 µM (inactive) | 29.9 µM (inactive) | > 100 µM (inactive) | > 100 µM (inactive) |
| O=C(Nc1ccc(Cl)cc1)c1cc2cc(/N=N/c3ccccc3Cl)ccc2oc1=O | 29.2 µM (inactive) | 34.1 µM (inactive) | 25.5 µM (inactive) | 18.9 µM (inactive) | 2.14 µM (inactive) | 15.2 µM (inactive) | – | – | 18.5 µM (inactive) | 26.8 µM (inactive) | 22.2 µM (inactive) | 22 µM (inactive) | 4.76 µM (inactive) | 28.7 µM (inactive) | 18.1 µM (inactive) | 27.5 µM (inactive) | 24 µM (inactive) | 15.8 µM (inactive) | 11.6 µM (inactive) | 44.6 µM (inactive) |
| COCOC1CCCC[C@@]1(OCCOCCO[C@@]1(c2ccccc2)CCCC[C@H]1OCOC)c1ccccc1 (stereo partly drawn) | 99.5 µM (inactive) | > 100 µM (inactive) | 37.8 µM (inactive) | > 100 µM (inactive) | > 100 µM (inactive) | > 100 µM (inactive) | > 100 µM (inactive) | > 100 µM (inactive) | > 100 µM (inactive) | > 100 µM (inactive) | > 100 µM (inactive) | > 100 µM (inactive) | > 100 µM (inactive) | 32.4 µM (inactive) | > 100 µM (inactive) | > 100 µM (inactive) | 24.4 µM (inactive) | > 100 µM (inactive) | > 100 µM (inactive) | > 100 µM (inactive) |
| CCOC(=O)C(O)(NC(=O)c1ccccc1F)C(F)(F)F (stereo not drawn) | > 100 µM (inactive) | > 100 µM (inactive) | > 100 µM (inactive) | > 100 µM (inactive) | > 100 µM (inactive) | > 100 µM (inactive) | > 100 µM (inactive) | > 100 µM (inactive) | > 100 µM (inactive) | – | > 100 µM (inactive) | > 100 µM (inactive) | > 100 µM (inactive) | > 100 µM (inactive) | > 100 µM (inactive) | > 100 µM (inactive) | > 100 µM (inactive) | > 100 µM (inactive) | > 100 µM (inactive) | > 100 µM (inactive) |
| O=C(Nc1ccc2[nH]c3c(-c4ccccc4)nccc3c2c1)c1ccccc1[N+](=O)[O-] | 4.88 µM (inactive) | 3.45 µM (inactive) | 3.22 µM (inactive) | 3.58 µM (inactive) | 3.48 µM (inactive) | 1.85 µM (inactive) | 3.97 µM (inactive) | 2.92 µM (inactive) | 1.82 µM (inactive) | 3.45 µM (inactive) | – | 36.9 µM (inactive) | 1.61 µM (inactive) | 1.64 µM (inactive) | 4.09 µM (inactive) | 5.58 µM (inactive) | 2.47 µM (inactive) | 1.85 µM (inactive) | – | 2.17 µM (inactive) |
| CCOC(=O)Cc1cnc(NC(NC(=O)CC)(C(F)(F)F)C(F)(F)F)s1 | – | – | > 100 µM (inactive) | 93.3 µM (inactive) | > 100 µM (inactive) | > 100 µM (inactive) | > 100 µM (inactive) | > 100 µM (inactive) | > 100 µM (inactive) | > 100 µM (inactive) | > 100 µM (inactive) | – | > 100 µM (inactive) | – | > 100 µM (inactive) | > 100 µM (inactive) | > 100 µM (inactive) | > 100 µM (inactive) | > 100 µM (inactive) | > 100 µM (inactive) |
